The structures appear in SMILES notation. Entries after “also recorded” stand apart in the source; their conditions may differ. Where only a bound is given, the exact number is not on record here.

The target of data set [1] is T1, human HHAT (Homo sapiens, UniProt Q5VTY9).
T1 construct: Full-length human HHAT (UniProt Q5VTY9); made in house
Kind of data set: Acyl-cLIP assay, dose-response inhibition of purified HHAT. The settings on record: for HHAT inhibition (in words) / IC50: purified HHAT; for HHAT inhibition (in words): Acyl-cLIP; for IC50: real-time Acyl-cLIP, mean and 95 % CI, n=3. Type of data set: biochemical. On the procedure: We recently reported the acylation‐coupled lipophilic induction of polarization (Acyl‐cLIP) assay, a facile and universally applicable method to monitor enzymes processing lipid post‐translational modifications which uses the hydrophobicity increase on lipidation to drive a polarized fluorescence readout. ^[15] Dose‐response analysis of inhibition of purified HHAT was conducted using real‐time Acyl‐cLIP analysis (Table 1).
AMBIC (ammonium bicarbonate); CDI (1,1’-carbonyldiimidazole); DCM (dichloromethane); DDM (n-dodecyl-β-D-maltopyranoside); DIPEA (N,N-diisopropylethylamine); DMF (dimethylformamide); DTT (dithiothreitol); EDTA (ethylenediaminetetraacetic acid); FAM (5/6-carboxyfluorescein); HEPES (4-(2-hydroxyethyl)-1-piperazineethanesulfonic acid); HOBt (hydroxybenzotriazole); TBME (tert-butyl methyl ether); TBTA (tris[(1-benzyl-1H-1,2,3-triazol-4-yl)methyl]amine); TCEP (tris(2-carboxyethyl)phosphine hydrochloride); TEA (triethylamine); TFA (trifluoroacetic acid); THF (tetrahydrofuran); TRIS (tris(hydroxymethyl)aminomethane).
All reagents were purchased from commercial sources (Sigma-Aldrich, Fisher Scientific, Acros Organics, Novabiochem) and used without further purification.
Pal-CoA (Sigma Aldrich) was stored in NaOAc (0.1 M, pH 6.0) at -80 °C. RUSKI-201 (1) was synthesised as previously described.[1b] The peptide comprising of residues 24-43 of SHH (residues 1-10 of the mature protein) labelled with 5/6-carboxyfluorescein (SHH-FAM) was prepared as previously described.
Mixtures described as % represent v/v unless otherwise stated.
Biological and Biochemical Methods
Full-length human HHAT (UniProt Q5VTY9) C -terminally fused with a 1D4 epitope tag was expressed and purified via antibody purification with Rho -1D4 antibody (University of British Columbia) coupled to CNBr-activated sepharose beads (GE Healthcare) as previously described.[9] Purified HHAT 0.1-0.2 mg/mL in storage buffer (10 mM HEPES, 150 mM NaCl, 5% glycerol, 0.025% (w/v) DDM, 0.0006% (w/v) cholesterol-hemisuccinate, pH 7.5) was flash-frozen in liquid nitrogen and stored at -80 °C.
The Acylation-coupled Lipophilic Induction of Polarisation (Acyl -cLIP) was performed as previously described,[9] using Rho-1D4 antibody purified HHAT. Briefly, HHAT was diluted to 45 µg/mL in solubilisation buffer (20 mM HEPES, 350 mM NaCl, 1% (w/v) DDM, 5% glycerol, pH 7.3) added to SHH-FAM (2 µM) in reaction buffer (100 mM MES, 20 mM NaCl, 1 mM DTT, 1 mM TCEP, 0.1% (w/v) BSA, pH 6.5) in a 1:10 (v/v) ratio, respectively. The HHAT/SHH-FAM solution (12 µL/well) was dispensed into a black 384-well plate (Corning, 3575). The reaction was initiated by addition of Pal-CoA (7.5 µM) in reaction buffer (8 µL/well), and fluorescence anisotropy measured every 1 min for 1 h on an EnVision Xcite 2104 (PerkinElmer).
Measurement used a FITC FP D505fp mirror module, FITC FP 480 nm excitation filter (30 nm bandwidth), FITC FP P-pol 535 nm first emission filter (40 nm bandwidth), and FITC FP S-pol […]
(§1) 535 nm second emission filter (40 nm bandwidth), measurement height = 9.52 mm, 8 flashes/well, PMT gain = 319, and G-factor = 1.09. Fluorescence anisotropy was calculated […]
(§2) Where S is signal in the S-channel, P is signal in the P-channel, and G is the G-factor.
(§3) Assay data were evaluated using Microsoft Excel 2013 and GraphPad Prism 5.0. Initial rate constants were determined by linear regression, normalized to DMSO negative controls and background corrected to positive controls with solubilization buffer instead of HHAT. The half-maximal inhibitory concentration (IC 50) was calculated using a 4-parameter sigmoidal dose-response curve fit. Determination of the mechanism of inhibition of IMP -1575 relative to Pal-CoA was performed by fitting equation 2 for a mixed model of inhibition[10] using nonlinear […]
Where v is the observed rate of reaction, Vmax is the maximum rate, [I] is the inhibitor concentration, [S] is the substrate concentration, Km is the substrate concentration at ½ Vmax, […]

Data set [2] addresses T1, human HHAT. Nature of the data set: Acyl-cLIP inhibition kinetics at varying Pal-CoA concentrations (mixed model of inhibition). The class given is biochemical. How it is done: IMP‐1575 (50–0.023 μM) was therefore analyzed for effects on HHAT kinetics at varying Pal‐CoA concentrations (50–0.19 μM, Figure 3 B,C).
as §1, §2, §3
Where v is the observed rate of reaction, Vmax is the maximum rate, [I] is the inhibitor concentration, [S] is the substrate concentration, Km is the substrate concentration at ½ Vmax, Ki is the affinity of the inhibitor for the free enzyme, and α is the ratio of the affinity of the inhibitor for the enzyme-substrate complex (Ki’) to Ki (typically noted as Ki’/Ki).
Density-Functional Theory Modelling
Density-functional theory (DFT) predictions were performed using Gaussian 16 [11] and Orca (version 4.0.1.2).[12] The compound 6 structure was initially created using Avogadro software (1.2.0) and geometry -optimised using an MMFF94s force field. Avogadro was also employed to explore conformers of the structure using a “systematic rotor search”. DFT geometry optimisations were initially carried out on the MMFF94s optimised structures using either the 6-31G basis set (for the B3LYP and M062X functionals) or the def2/SVP basis set (for the CAM-B3LYP functional). Structures were then optimised with a higher -level basis set (6-311++G(d,p), for the B3LYP and M062X functional, and def2/TZVP for the CAM-B3LYP functional). […]

Data set [3] has as its target T1, human HHAT. Kind of data set: Photocrosslinking to purified HHAT, CalFluor-647 CuAAC and in-gel fluorescence. Type of data set: binding. The settings on record: for crosslinking of probe to HHAT (in-gel fluorescence): probe 10 μM, purified HHAT, UV 365 nm 1 min. The text has this: These new insights led to design of photocrosslinking chemical probes 10 and 11 to investigate the small‐molecule binding site in HHAT (Figure 2 A). In probe 10 the secondary amine moiety was exchanged for a diazirine group, and the terminal alkyl chain replaced with an alkyne; probe 11 contains an additional carbon between the carbonyl and diazirine. The diazirine allows photoactivated chemical crosslinking to nearby residues in HHAT, with the alkyne allowing biorthogonal functionalization via copper(I)‐catalyzed azide‐alkyne cycloaddition (CuAAC, “click chemistry”) for subsequent analysis. […] The sidechains were synthesized and coupled to 2 (Scheme S4,5). […] Protein crosslinking was next investigated through CuAAC functionalization with a fluorophore and in‐gel fluorescence readout. As an integral membrane protein, HHAT presents substantial challenges in sample handling and cannot be precipitated to remove excess fluorophore which otherwise binds non‐specifically (data not shown). Fluorogenic azide CalFluor‐647 (Figure S8) ^[18] was therefore used to reduce background fluorescence from dye that had not reacted with alkyne probe. 10 or 11 (10 μM) were incubated with purified HHAT with or without UV irradiation (1 min). […]
Molecule for alignment. Compounds 1-9 (R)-enantiomers and IC50 values from the Acyl-cLIP assay were used as a Training Set . For the purpose of analysis of weakly active inhibitors, […]
Conformation Hunt was set to Normal, Alignment set to Normal, and Build Model set to Field
QSAR. Probes 10 and 11 were used as a Prediction Set .
Photoactivation Analysis by LC/MS
A solution of 10 or 11 (100 μM) in water was cooled on ice and irradiated using a custom-made UV light source (365 nm, 25 mW/cm2) for the indicated times. […]
All steps were performed in the dark in a cold room (4 °C), until specified otherwise. […] The gel was run until the loading dye had eluted from the gel (typically 55 min at 200 V) and the in-gel fluorescence […]
recorded (Excitation: 635 nm Emission: 669 nm) on a Typhoon FLA 9500 (GE Healthcare). […]

Data set [4] can be described thus: Photoactivation analysis by LC/MS under UV irradiation (365 nm). The class given is physicochemical. The settings on record: 100 μM in water on ice.
The next data set concerns the target HHAT. Further details: method as in PMID 23416332. To be noted: reported as noncompetitive with Pal-CoA; cited from earlier work.

T1 sequence (Q5VTY9 whole entry): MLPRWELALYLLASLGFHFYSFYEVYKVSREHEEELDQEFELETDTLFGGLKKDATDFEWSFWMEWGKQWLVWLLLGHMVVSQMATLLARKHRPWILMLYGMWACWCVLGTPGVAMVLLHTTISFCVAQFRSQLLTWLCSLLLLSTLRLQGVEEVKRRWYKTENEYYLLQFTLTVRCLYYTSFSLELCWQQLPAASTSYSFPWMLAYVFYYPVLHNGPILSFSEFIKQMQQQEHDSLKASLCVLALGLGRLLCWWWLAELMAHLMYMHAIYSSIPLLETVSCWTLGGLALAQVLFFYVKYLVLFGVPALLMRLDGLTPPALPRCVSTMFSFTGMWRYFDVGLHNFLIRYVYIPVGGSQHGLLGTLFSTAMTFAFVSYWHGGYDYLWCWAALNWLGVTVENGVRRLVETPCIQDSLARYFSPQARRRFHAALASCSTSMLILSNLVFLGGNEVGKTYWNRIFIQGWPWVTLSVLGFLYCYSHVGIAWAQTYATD

A word on the IC50: it is the midpoint of a concentration-inhibition curve. Low readings indicate greater potency, high ones weaker potency. Consider `Cc1cccc(C2NCCc3sccc32)n1` (stereo not shown) [Compound 2], for which, on human HHAT [1], the “HHAT inhibition (in words)” value is recorded as “no inhibition” and the IC50 is above 50 µM.

At human HHAT [1], `CC(=O)N1CCc2sccc2C1c1cccc(C)n1` (stereo not shown) [Compound 3] gave an IC50 of 13 µM.

Usually Ki stands for a dissociation constant, usually derived from enzyme kinetics or from competition with a known ligand. As for `Cc1cccc([C@H]2c3ccsc3CCN2C(=O)CNCC(C)C)n1` [(+)-6], at human HHAT [1] (from Acyl-cLIP IC50), the “potency compared to (+/-)-6” value is reported as “two‐fold increased potency”. Moreover, inhibition at human HHAT [1] was half-maximal at 0.75 µM (IC50). At human HHAT [2] (competitive with respect to Pal-CoA, IMP-1575 50-0.023 μM, Pal-CoA 50-0.19 μM, mixed model fit), the affinity corresponds to a Ki of 0.038 µM. Also, the “mode of inhibition with respect to Pal-CoA” value on human HHAT [2] (mixed model analysis) is given as “competitive”. Also, at human HHAT [2] (ratio Ki'/Ki, with respect to Pal-CoA), the “α (mixed model equation for inhibition)” value is reported as 470. Besides, the “competition of probe 11 crosslinking to HHAT” value at human HHAT [3] (40-fold excess IMP-1575 (400 μM) vs probe 11 (10 μM)) is listed as “reduced crosslinking to near background levels”.

For `Cc1cccc(C2c3ccsc3CCN2C(=O)CNCCC(C)C)n1` (stereo not shown) [Compound 5], at human HHAT [1], the 50% inhibitory concentration (IC50) amounted to 5.8 µM.

For the molecule `Cc1cccc(C2c3ccsc3CCN2C(=O)CN2CCCC(C)C2)n1` (stereo not shown) [Compound 8], at human HHAT [1], the “HHAT inhibition (in words)” value is listed as “substantially reduced activity” and the IC50 is around 50 µM.

As to `Cc1cccc(C2c3ccsc3CCN2C(=O)CNCC(C)C)n1` (single isomer, unassigned; (-)) [(-)-6], on human HHAT [1], the “HHAT inhibition (in words)” value is “no HHAT inhibition” and the IC50 was above 50 µM.

In turn, `Cc1cccc(C2c3ccsc3CCN2C(=O)CNCC(C)C)n1` (stereo not shown) [Compound 6] had an IC50 at human HHAT [1] of 1.3 µM.

As to `CC[C@H](C)CNCC(=O)N1CCc2sccc2C1c1cccc(C)n1` (stereo partly shown) [Compound 4], at human HHAT [1] (from Acyl-cLIP IC50), the “fold reduced potency compared to 1” value is “≈ 2 fold”. Half-maximal inhibition on human HHAT [1] (IC50) was put at 3.7 µM.

In the case of `Cc1cccc(C2c3ccsc3CCN2C(=O)NCCC(C)C)n1` (stereo not shown) [Compound 9], at human HHAT [1], the “HHAT inhibition (in words)” value was “substantially reduced activity” and the IC50 was around 50 µM.

As to `C#CCCC1(CCC(=O)N2CCc3sccc3C2c2cccc(C)n2)N=N1` (stereo not shown) [Compound 11], at human HHAT [1], it took 2.4 µM to reach half-maximal inhibition (IC50). In addition, the “crosslinking of probe to HHAT (in-gel fluorescence)” value at human HHAT [3] is reported as “crosslinking of probe 11 to HHAT promoted by UV irradiation; also recorded: enhanced labelling with UV irradiation”. This molecule also registered an activation half-life in data set [4] of 0.533 min.

As to `C#CCCC1(CC(=O)N2CCc3sccc3C2c2cccc(C)n2)N=N1` (stereo not shown) [Compound 10], on human HHAT [1], the IC50 was determined as 16 µM. The “crosslinking of probe to HHAT (in-gel fluorescence)” value on human HHAT [3] is recorded as “minimal crosslinking; also recorded: minimal labelling”. This molecule gave an activation half-life in data set [4] of 3.3 min.

With `CCC(C)CNCC(=O)N1CCc2sccc2C1COc1cccc(C)c1` (stereo not shown) [RUSKI-43], the Ki on HHAT was 6.9 µM.

With `Cc1cccc(C2c3ccsc3CCN2C(=O)CN(C)CC(C)C)n1` (stereo not shown) [Compound 7], at human HHAT [1], the “HHAT inhibition (in words)” value was “substantially reduced activity” and the IC50 was around 25 µM.

Source of the values: PMC8252026, “Photochemical Probe Identification of a Small‐Molecule Inhibitor Binding Site in Hedgehog Acyltransferase (HHAT)” (Angewandte Chemie (International Ed. in English), 2021).
